Key:
human CYP11B2 = biological target: T1, human CYP11B2 (Homo sapiens, UniProt P19099); test: G-402 cell enzyme experiment, CYP11B2 (aldosterone product, HTRF); format: cell-based; conditions: G-402 cells stably expressing human CYP11B2, 1 µM 11-deoxycorticosterone, 16 h
T1 construct: The main elements of an expression plasmid include ORF of human CYP11B1 or human CYP11B2; expressed in transfected cells
T1 sequence (P19099 25-503): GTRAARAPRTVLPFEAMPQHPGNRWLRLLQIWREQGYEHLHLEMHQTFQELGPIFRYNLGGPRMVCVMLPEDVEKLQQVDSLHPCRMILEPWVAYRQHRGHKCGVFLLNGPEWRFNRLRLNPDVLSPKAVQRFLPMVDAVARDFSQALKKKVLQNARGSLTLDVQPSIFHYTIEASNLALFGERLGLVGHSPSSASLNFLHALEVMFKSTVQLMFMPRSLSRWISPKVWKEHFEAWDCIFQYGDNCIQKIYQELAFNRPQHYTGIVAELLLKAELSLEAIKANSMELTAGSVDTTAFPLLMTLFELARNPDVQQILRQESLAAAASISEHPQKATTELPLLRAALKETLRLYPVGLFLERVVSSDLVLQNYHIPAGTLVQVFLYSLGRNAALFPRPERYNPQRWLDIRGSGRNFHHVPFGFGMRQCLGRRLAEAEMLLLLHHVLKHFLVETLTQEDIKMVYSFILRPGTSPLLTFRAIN
From the text: (§1) G-402 cell line was used as host cells to express (by transient or stable transfection) an enzyme of the human CYP11 family. Specifically, G-402 cell lines stably expressing human CYP11B1 and human CYP11B2 were established respectively. […] Therefore, the G-402 cell line is very suitable as a host cell for the ectopic expression of an enzyme of the CYP11 family.
(§2) The G-402 cell line, originally derived from renal myoblastoma, can be obtained from ATCC (CRL-1440). The main elements of an expression plasmid include ORF of human CYP11B1 or human CYP11B2, a suitable promoter (CMV promoter), and a suitable resistance marker (neomycin). The expression plasmid was transfected into G-402 cells by standard technology, and a specific antibiotic was then given for screening. The activity of the enzyme expressed by the screened monoclonal cells was assessed by 11-deoxycorticosterone (substrate of CYP11B2) and 11-deoxycortisol (substrate of CYP11B1).
(§3) The G-402 cells expressing CYP11 plasmid, as established in the above solution, were cultured in McCoy's 5a Modified Medium (ATCC Catalog No. 30-2007) containing 10% FCS and 400 µg/ml G418 in an incubator at 37°C and 5% CO2. A cell enzyme experiment was carried out using DMEM/F12 medium containing 2.5% charcoal-treated FBS and an appropriate concentration of a substrate (1 µM 11-deoxycorticosterone or 1 µM 11-deoxycortisol). In order to detect the activity of the enzyme in the cells, the cells were plated in a 96-well plate and incubated for 16 h. The supernatant was then transferred and analyzed for the concentration of the expected product (the product of CYP11B2: aldosterone; the product of CYP11B1: cortisol). The concentrations of these products were determined by an HTRF experiment of CisBio.
(§4) In the cell enzyme experiment, the inhibitory effect of the test compound on the generated product can reflect the inhibitory effect thereof on the enzyme. The dose-dependent inhibition of the enzyme activity by the compound was calculated by plotting the concentration of the test compound (x axis) versus the measured product level (y axis). Then, the original data was fitted to a 4-parameter sigmoidal function (Morgan-Mercer-Flodin, MMF model) by least square method: y = (AB + Cx^D) / (B + x^D) in which A is the maximum y value, B is the EC50 determined by XLFit, C is the minimum y value, and D is the slope value. The maximum value A corresponds to the amount of the product detected without an inhibitor, and C corresponds to the amount of the product detected in the G402 cells expressing an empty plasmid.
(§5) The EC50 value of the compound of the present invention was determined by the above G-402 experiment system. The activity of the CYP11B2 enzyme was determined under the conditions of 1 µM 11-deoxycorticosterone and a variable amount of the inhibitor, and the activity of the CYP11B1 enzyme was determined under the conditions of 1 µM 11-deoxycortisol and a variable amount of the inhibitor.

human CYP11B1 = biological target: T2, human CYP11B1 (Homo sapiens, UniProt P15538); test: G-402 cell enzyme experiment, CYP11B1 (cortisol product, HTRF), selectivity versus CYP11B2; format: cell-based; conditions: human selective factor: ratio of CYP11B1 EC50 to CYP11B2 EC50; G-402 cells
T2 construct: The main elements of an expression plasmid include ORF of human CYP11B1 or human CYP11B2; expressed in transfected cells
T2 sequence (P15538 25-503): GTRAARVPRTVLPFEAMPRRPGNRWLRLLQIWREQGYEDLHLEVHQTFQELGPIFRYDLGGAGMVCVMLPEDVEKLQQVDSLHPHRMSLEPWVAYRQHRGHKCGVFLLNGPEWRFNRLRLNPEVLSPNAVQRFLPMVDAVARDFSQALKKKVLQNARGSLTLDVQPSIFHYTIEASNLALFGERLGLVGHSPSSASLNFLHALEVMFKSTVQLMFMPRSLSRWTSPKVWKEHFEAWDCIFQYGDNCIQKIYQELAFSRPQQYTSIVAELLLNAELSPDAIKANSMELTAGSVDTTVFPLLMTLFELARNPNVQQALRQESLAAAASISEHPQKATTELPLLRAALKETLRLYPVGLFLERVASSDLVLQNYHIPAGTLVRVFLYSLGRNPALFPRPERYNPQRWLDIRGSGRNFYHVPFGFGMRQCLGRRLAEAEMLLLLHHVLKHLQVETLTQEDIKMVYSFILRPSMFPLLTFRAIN
From the text: as §1, §2, §3, §4, §5

[1] = Pharmacokinetic determination in rats; format: in vivo; conditions: rat, male SD rats, plasma, oral administration (PO) 5 mg/kg; for MRT inf: read-out: MRT0-∞
Experimental: SD rats were used as test animals to study the pharmacokinetic behavior of the compounds of the present invention in rats (plasma) after oral administration.
3 SD rats per group, male.
Formulation of drug for oral administration: 0.5% CMC-Na (1% Tween 80)
5 g of sodium carboxymethyl cellulose (CMC-Na, viscosity: 800-1200 Cps) was weighed and dissolved in 1000 mL of purified water, and 10 g of Tween 80 was added. These materials were uniformly mixed to form a clear solution.
The example compounds were weighed and dissolved in the solution and the mixture was shaken well and ultrasonicated for 15 min to obtain a colorless clear solution with a concentration of 0.5 mg/mL. Formulation of drug for intravenous administration: 5% DMSO + 10% Solutol HS15 + 85% PBS
After overnight fasting, 3 male SD rats per group were administered orally (PO) at a dose of 5 mg/kg with an administration volume of 10 mL/kg. […]
0.2 mL of blood was collected from the jugular vein of the experimental animals before administration and at 0.25 h, 0.5 h, 1.0 h, 2.0 h, 4.0 h, 6.0 h, 8.0 h, and 24.0 h after administration and placed in an EDTA-2K test tube, and the test tube was centrifuged at 8000 rpm for 6 min at 4°C to separate the plasma, which was stored at -80°C; and the animals were fed 4 h after administration.
3 Experimental results: The final determination results were obtained by using LCMS/MS method.

SMILES	EC50 (human CYP11B2) [nM]	hsF (human CYP11B1) [x]	AUC(0-inf) [1] [ng·h/mL]	AUC(0-t) [1] [ng·h/mL]	Cmax [1] [ng/mL]	Tmax [1] [h]	half-life [1] [h]	MRT inf [1] [h]
COc1ccc2cc(-c3cncc(N4CC5(CN(C(=O)c6cnn(C)c6)C5)C4)c3)ccc2n1 [Example 23, (6-(5-(2-methoxyquinolin-6-yl)pyridin-3-yl)-2,6-diazaspiro[3.3]heptan-2-yl)(1-methyl-1H-pyrazol-4-yl)methanone]	9	> 22909	33600	33600	5720	2	2.2	3.8
COc1ccc2cc(-c3cncc(N4CC5(CN(C(=O)c6cnn(C)c6)C5)C4)n3)ccc2n1 [Example 79, (6-(6-(2-Methoxyquinolin-6-yl)pyrazin-2-yl)-2,6-diazaspiro[3.3]heptan-2-yl)(1-methyl-1H-pyrazol-4-yl)methanone]	12	3999	16700	16700	3160	4	2.8	4.5
COc1ccc2cc(-c3cncc(N4CC5(CN(C(=O)c6ccc(C)nc6)C5)C4)n3)ccc2n1 [Example 100, (6-(6-(2-methoxyquinolin-6-yl)pyrazin-2-yl)-2,6-diazaspiro[3.3]heptan-2-yl)(6-methylpyridin-3-yl)methanone]	9	1048	22500	20100	3950	2	2	4.1
CCC(=O)N[C@@H]1CCCc2c(-c3ccc4c(cnn4C)c3)cncc21 [Example 60, (R)-N-(4-(1-methyl-1H-indazol-5-yl)-5,6,7,8-tetrahydroisoquinolin-8-yl)propanamide]	69	170	22400	21800	4900	2	1.3	3.1
COc1ccc2cc(-c3cncc(N4CCC(NC(=O)c5cnn(C)c5)CC4)n3)ccc2n1 [Example 109, N-(1-(6-(2-methoxyquinolin-6-yl)pyrazin-2-yl)piperidin-4-yl)-1-methyl-1H-pyrazole-4-carboxamide]	6	159						
COc1ccc2cc(-c3cncc(N4CC5(CN(C(=O)C6(O)CC6)C5)C4)c3)ccc2n1 [Example 97, (1-hydroxycyclopropyl)(6-(5-(2-methoxyquinolin-6-yl)pyridin-3-yl)-2,6-diazaspiro[3.3]heptan-2-yl)methanone]	11	971						
COc1ccc2cc(-c3cncc(N4CC5(CN(C(=O)C6(F)CC6)C5)C4)c3)ccc2n1 [Example 94, (1-fluorocyclopropyl)(6-(5-(2-methoxyquinolin-6-yl)pyridin-3-yl)-2,6-diazaspiro[3.3]heptan-2-yl)methanone]	13	350						
COc1ccc2cc(-c3cncc(N4CC5(CN(C(=O)C6(C#N)CC6)C5)C4)c3)ccc2n1 [Example 81, 1-(6-(5-(2-methoxyquinolin-6-yl)pyridin-3-yl)-2,6-diazaspiro[3.3]heptane-2-carbonyl)cyclopropane-1-carbonitrile]	5	261						
COc1ccc2cc(-c3cncc(N4CC5(CN(C(=O)c6ccc(C)nc6)C5)C4)c3)ccc2n1 [Example 84, (6-(5-(2-methoxyquinolin-6-yl)pyridin-3-yl)-2,6-diazaspiro[3.3]heptan-2-yl)(6-methylpyridin-3-yl)methanone]	8	1652						
CCC(=O)N1CC2(C1)CN(c1cncc(-c3ccc4nc(OC)ccc4c3)c1)C2 [Example 36, 1-(6-(5-(2-methoxyquinolin-6-yl)pyridin-3-yl)-2,6-diazaspiro[3.3]heptan-2-yl)propan-1-one]	26	2766						
[2H]C([2H])([2H])n1cc(C(=O)N2CC3(C2)CN(c2cncc(-c4ccc5nc(OC)ccc5c4)c2)C3)cn1 [Example 78, (6-(5-(2-methoxyquinolin-6-yl)pyridin-3-yl)-2,6-diazaspiro[3.3]heptan-2-yl)(1-(methyl-d3)-1H-pyrazol-4-yl)methanone]	24	> 8488	21600	21600	3210	4	1.9	4.7
Cn1cc(C(=O)N2CC(Oc3cncc(-c4ccc5c(c4)sc(=O)n5C)c3)C2)cn1 [Example 91, 3-methyl-6-(5-((1-(1-methyl-1H-pyrazole-4-carbonyl)azetidin-3-yl)oxy)pyridin-3-yl)benzo[d]thiazol-2(3H)-one]	12	2278	18200	18200	2560	1	2.2	4.2
COc1ccc2cc(-c3cncc(N4CC5(CC(N6CCc7cc(C)ncc7C6=O)C5)C4)c3)ccc2n1 [Example 108, 2-(2-(5-(2-Methoxyquinolin-6-yl)pyridin-3-yl)-2-azaspiro[3.3]heptan-6-yl)-6-methyl-3,4-dihydro-2,7-diazanaphthalen-1(2H)-one]	71	> 2817						
COc1ccc2cc(-c3cncc(NC4CN(C(=O)c5cnn(C6CC6)c5)C4)c3)ccc2n1 [Example 54, (1-cyclopropyl-1H-pyrazol-4-yl)(3-((5-(2-methoxyquinolin-6-yl)pyridin-3-yl)amino)azetidin-1-yl)methanone]	21	404						

— patent publication EP4696688A1, “BENZO-FUSED RING COMPOUND INHIBITOR, AND PREPARATION METHOD THEREFOR AND USE THEREOF” (Shanghai Hansoh Biomedical Co., Ltd., priority 2023, dated 2024)
